# Experimental data from patent publication US11000485B2, “Substituted hydroxystilbenes as AhR and Nrf2 modulators and their therapeutic applications” (Resolvex Pharmaceuticals Inc., priority 2017, dated 2021).
# Key:
# [1] = system: dextran sodium sulphate (DSS) induced model of inflammatory bowel disease (IBD)/colitis; assay: DSS induced model of IBD/colitis; assay type: in vivo, female Balb/c mice; conditions: Day 0 to Day 8, DSS control group 24.2+5.7, normal control 1.9+2.4
# Method: The efficacy of Compound 2 was tested in a dextran sodium sulphate (DSS) induced model of inflammatory bowel disease (IBD)/colitis in female Balb/c mice. Rolipram was used as a positive control in this experiment. Colitis was induced in the mice by providing drinking water containing DSS (3.5%, M. Wt. 30,000-50,000) from Day 0 to Day 8. The test compounds were administered as per their respective groups at specific dose levels starting from Day 0 through to Day 8. […] For dosing, Compound 2 was dissolved in vehicle (1.5% Cremophor EL) at 3 mg/mL and 1 mg/mL for the 30 and 10 mg/kg doses, respectively. […] All doses were administered by oral gavage.
# There was a considerable increase in disease activity index (DAI) (cumulative scores of body weight, stool consistency and rectal bleeding) in the DSS control group (24.2+5.7) when compared to normal control group (1.9+2.4) which indicated very good disease induction.
# [2] = biological target: T1, Aryl Hydrocarbon Receptor (AhR) (Homo sapiens, UniProt P35869); assay: AhR-CYP1A1-bla LS-180 beta-lactamase reporter assay; assay type: cell-based; conditions: AhR-CYP1A1-bla LS-180 cells, 24 hours; read-out: EC50, AhR activation
# T1 construct: host or cells: AhR-CYP1A1-bla LS-180
# T1 sequence (P35869 11-848): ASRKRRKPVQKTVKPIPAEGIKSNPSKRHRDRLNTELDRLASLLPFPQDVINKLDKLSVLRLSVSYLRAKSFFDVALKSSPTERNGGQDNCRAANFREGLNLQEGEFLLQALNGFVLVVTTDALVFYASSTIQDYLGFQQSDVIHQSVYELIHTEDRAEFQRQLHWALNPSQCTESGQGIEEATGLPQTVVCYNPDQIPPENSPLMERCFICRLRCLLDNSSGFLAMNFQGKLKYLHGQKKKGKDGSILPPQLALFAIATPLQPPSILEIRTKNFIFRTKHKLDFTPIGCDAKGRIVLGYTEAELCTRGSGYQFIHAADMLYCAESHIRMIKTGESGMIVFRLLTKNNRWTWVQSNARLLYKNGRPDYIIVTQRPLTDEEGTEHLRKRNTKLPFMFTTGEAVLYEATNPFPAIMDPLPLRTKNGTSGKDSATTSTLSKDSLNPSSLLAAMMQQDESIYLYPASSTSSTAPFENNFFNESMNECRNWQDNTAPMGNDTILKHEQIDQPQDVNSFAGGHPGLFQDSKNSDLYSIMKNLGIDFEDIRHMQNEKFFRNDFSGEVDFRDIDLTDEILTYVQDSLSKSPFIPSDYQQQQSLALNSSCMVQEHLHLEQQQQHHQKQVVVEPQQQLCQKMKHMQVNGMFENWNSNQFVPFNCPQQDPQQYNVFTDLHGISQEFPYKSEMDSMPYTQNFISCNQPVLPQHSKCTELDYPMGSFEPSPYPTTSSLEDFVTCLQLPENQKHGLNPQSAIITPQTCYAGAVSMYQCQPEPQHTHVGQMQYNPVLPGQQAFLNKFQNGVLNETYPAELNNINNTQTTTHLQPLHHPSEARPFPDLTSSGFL
# Method: This assay was performed using Invitrogen's CellSensor® cell line AhR-CYP1A1-bla LS-180 with GeneBLAzer® Beta-lactamase (bla) Reporter Technology as the detection method. When the AhR-CYP1A1 pathway is activated or inhibited, Beta-lactamase reporter activity is modulated and is measured quantitatively and selectively with the LiveBLAzer™-FRET B/G Loading Substrate.
# Briefly, the AhR-CYP1A1-bla LS-180 cells were grown in Growth Media (MEM, 10% FBS, 0.1 mM NEAA, 1 mM Sodium Pyruvate). Cells were dissociated and resuspended in Assay Media (OPTI-MEM, 0.5% dialyzed FBS, 0.1 mM NEAA, 1 mM Sodium Pyruvate). Around 2×10^4 cells in a volume of 32 μL of assay media was added to each well of a 384 well Poly-D-Lysine assay plate. After incubation for 16 hours at 37° C. in a humidified incubator, 4 μL of a 10× serial dilution of test compounds were added to appropriate wells of the plate. The plate was incubated for 24 hours at 37° C. For the reporter activity assay, 8 μL of 1 μM Substrate was added to each well and the plate was incubated for 2 hours at room temperature. The plate was read on a fluorescence plate reader.
# VCAM-1 = assay: BioMap BF4T lung epithelium inflammation system; assay type: cell-based; conditions: stimulated human primary bronchial epithelial cells, 24 hours, ELISA
# Method: (§1) The compounds were assayed in the Eurofin's BioMap system (BF4T Cells) which models Th2-type lung inflammation, an environment that promotes the recruitment of eosinophils, mast cells, neutrophils, and basophils as well as effector memory T cells. This system is relevant for allergy and asthma, pulmonary fibrosis, as well as chronic obstructive pulmonary disorder (COPD) exacerbations. The human primary bronchial epithelial cells were cultured and stimulated to induce the inflammatory factors responsible for the pathogenesis of various inflammatory diseases in the lung. The test compounds were added to the in vitro model culture system and incubated for 24 hours. The supernatants were collected and assayed for the protein production of various molecules using ELISA assays. The biomarkers assayed included MCP-1, Eotaxin-3, VCAM-1, ICAM-1, CD90, IL-8, IL1α, Keratin 8/18, MMP1, MMP-3, MMP-9, PAI-1, SRB, tPA, and uPA.
# ICAM-1 = assay: BioMap BF4T lung epithelium inflammation system; assay type: cell-based; conditions: stimulated human primary bronchial epithelial cells, 24 hours, ELISA
# Method: as §1
# IL-8 = assay: BioMap BF4T lung epithelium inflammation system; assay type: cell-based; conditions: stimulated human primary bronchial epithelial cells, 24 hours, ELISA
# Method: as §1
# IL-1α = assay: BioMap BF4T lung epithelium inflammation system; assay type: cell-based; conditions: stimulated human primary bronchial epithelial cells, 24 hours, ELISA
# Method: as §1
smiles,measurement,setting,value
"CC(C)c1ccc(/C=C/c2ccc(F)cc2)cc1O [Compound 2, 3-hydroxy-4-isopropyl-4′-fluoro-(E)-stilbene]","disease activity index (DAI) (cumulative scores of body weight, stool consistency and rectal bleeding)",[1]; 10 mg/kg oral gavage,17.4+12.0
same,"disease activity index (DAI) (cumulative scores of body weight, stool consistency and rectal bleeding)",[1]; 30 mg/kg oral gavage,15.4+4.9
same,EC50,[2],27 nM
same,effect on production of VCAM-1,VCAM-1,suppress the production
same,effect on production of ICAM-1,ICAM-1,suppress the production
same,effect on production of IL-8,IL-8,suppress the production
same,effect on production of IL-1α,IL-1α,suppress the production
